Assay results as given in patent publication US20140322708A1, “METHOD FOR MEASURING SOMATIC DNA […]” (Albert Einstein College of Medicine of Yeshiva University, priority 2011, published 2014).
Where “and” joins values, the source holds several entries; their conditions need not be identical. Equal entries are not always repeated.

Columns and labels:
S2 cells [1] = assay: Single cell whole genome sequencing for somatic point mutations after ENU treatment; assay type: cell-based, Drosophila melanogaster
Experimental: To assess somatic mutation spectra in single cells in a genome-wide manner S2 cells derived from Drosophila melanogaster, an organism with a genome size of 160 MB, were used. The strategy followed is outlined in FIG. 1B. Individual single cells were picked from an S2 cell culture 72-h after treatment with 4.2 mM of the powerful point mutagen N-ethyl-N-nitrosourea (ENU) or mock treated with solvent (control). At 72-h post-treatment virtually no lesions remain (6,7) and cell survival is greater than 90% (8) (results not shown). Each single cell was lysed and subjected to whole genome amplification (WGA) using an optimized multiple displacement amplification (MDA) protocol (see Methods and Materials)(9). The amplified cells were first screened for locus dropout by qPCR using primer pairs distributed over the different chromosomes (FIG. 5). DNA from the cells displaying the least amount of dropout was fragmented and processed to generate sequencing libraries for the Illumina HiSeq platform. In this way libraries of three untreated and three ENU-treated cells were prepared. For comparison, a similar library was made from unamplified total genomic DNA from the untreated S2 cell population. To identify all possible mutations, either spontaneously formed in the unexposed, control cells or induced by ENU in the treated cells, the libraries were sequenced from both ends, generating between 50-100 million 108-bp paired-end reads per cell. Alignment to the Drosophila reference sequence (dm3) was performed using BWA (10), and post-processing was completed using the Genome Analysis Toolkit (GATK) (11). […] Since ENU is a point mutagen the subsequent analysis was based on this type of mutations only. The pipeline developed for somatic point mutation discovery is described in further detail in the Methods and Materials section. Briefly, aligned sequence data from the unamplified sample and a single cell was compared and all differences with the reference sequence were recorded as variants. Variants with sufficient coverage (20×) in both the unamplified and the single cell sample were classified as “germline” or “somatic” based on whether the variant was shared between the two samples. Somatic variants were further processed using a strand-bias filter and were visually validated using the Integrative Genomics Viewer (IGV) (12).
Single cells were collected under an inverted microscope by hand-held capillaries, deposited in PCR tubes along with 2 μl of culture medium, and immediately frozen on dry ice. […] The reaction products were purified using AMPure XP magnetic beads (Agencourt, Beverly, Mass.) and the reaction yield was measured using the NanoDrop 1000 spectrophotometer (Nanodrop Technologies LLC, Wilmington, Del.). […]

[2] = tested on: mouse embryonic fibroblast (MEF); assay: Single cell reduced representation (MseI) sequencing for somatic point mutations after ENU treatment; assay type: cell-based
Experimental: Therefore, the procedure shown in FIG. 1B was slightly modified, using a reduced representation approach based on restriction enzyme digestion. For this purpose mouse embryonic fibroblast (MEF) populations were used either treated with 4.2 mM ENU or mock-treated with solvent only. Instead of preparing sequencing libraries directly using randomly fragmented DNA, whole genome amplified DNA was digested from two treated and two control MEFs, as well as unamplified genomic DNA from the MEF population, with MseI, a four-base cutter with a TTAA cleavage site. Following digestion an agarose gel size-selection was performed for fragments between 250-bp and 350-bp, corresponding to a target region of approximately 300 MB. The fragments were sequenced using 121-bp single-end reads. […] Due to the nature of the reduced representation library, the strand bias filter could not be used and therefore a more stringent mutant read frequency cutoff (>40%) was adopted. Out of the 300-MB target region, 220 MB (73%) had sufficient coverage (10×) in the unamplified control sample and 85-93 MB (39-42%) of the 220 MB overlapped with regions of sufficient coverage in the single MEFs. Due to the absence of a sufficient number of heterozygous SNPs in the MEF cell line, allele dropout was estimated using the distribution of mutant read frequencies found in the ENU-treated MEF cells.
Single cells were collected under an inverted microscope by hand-held capillaries, deposited in PCR tubes along with 2 μl of culture medium, and immediately frozen on dry ice. Cells were lysed and amplified using the REPLI-g UltraFast Mini kit (Qiagen, Santa Clara, Calif.) according to the manufacturer's instructions, but using an initial 30-min amplification at 30° C. followed by an 18-hour amplification at 35° C. The reaction products were purified using AMPure XP magnetic beads (Agencourt, Beverly, Mass.) and the reaction yield was measured using the NanoDrop 1000 spectrophotometer (Nanodrop Technologies LLC, Wilmington, Del.). Reactions with yield of greater than 1 μg were tested for locus dropout at eight loci using comparative Ct measurements from real-time PCR (StepOne Plus, Applied Biosystems, Foster City, Calif.) performed with Fast SYBR® Green Master Mix (Foster City, Calif.). Up to 5 μg of DNA from samples displaying the least biased amplification was used as input for Illumina libraries. DNA was either randomly fragmented (S2 cells) or digested (MEFs) with 50 U of Msei (NEB, Ipswich, Mass.). Digested DNA (MEFs) was end-repaired using Mung Bean Nuclease (NEB, Ipswich, Mass.) and then used as input for the Illumina library preparation. S2 libraries were size-selected to 475-525-bp and MEF libraries were size selected to 250-350-bp using agarose gel electrophoresis. […] The aligned sequence data was processed using genome analysis toolkit (GATK) (e.g., available at www.broadinstitute.org) to realign reads containing indels or a high entropy of mismatches, recalibrate the base quality scores, and to compute coverage data and statistics. Somatic point mutations and germline variation were scored using a pipeline composed of SAMtools mpileup command (e.g., available at samtools.sourceforge.net/mpileup.shtml), VarScan somatic command (e.g., available at varscan.sourceforge.net/somatic-calling.html) and a custom script to parse and filter the VarScan output. Somatic events found in multiple single cells were discarded, as were events found in at least one read in the unamplified control sample. […]

S2 cells [3] = assay: Cell survival after ENU treatment; assay type: cell-based, Drosophila melanogaster; settings: 72-h post-treatment, 4.2 mM ENU
Experimental: To assess somatic mutation spectra in single cells in a genome-wide manner S2 cells derived from Drosophila melanogaster, an organism with a genome size of 160 MB, were used. The strategy followed is outlined in FIG. 1B. Individual single cells were picked from an S2 cell culture 72-h after treatment with 4.2 mM of the powerful point mutagen N-ethyl-N-nitrosourea (ENU) or mock treated with solvent (control). At 72-h post-treatment virtually no lesions remain (6,7) and cell survival is greater than 90% (8) (results not shown). Each single cell was lysed and subjected to whole genome amplification (WGA) using an optimized multiple displacement amplification (MDA) protocol (see Methods and Materials)(9). The amplified cells were first screened for locus dropout by qPCR using primer pairs distributed over the different chromosomes (FIG. 5). […] To identify all possible mutations, either spontaneously formed in the unexposed, control cells or induced by ENU in the treated cells, the libraries were sequenced from both ends, generating between 50-100 million 108-bp paired-end reads per cell. […] Briefly, aligned sequence data from the unamplified sample and a single cell was compared and all differences with the reference sequence were recorded as variants. […]

S2 cells [4] = assay: Reduced representation paired-end sequencing assay for genome rearrangements in bleomycin-treated cells; assay type: cell-based, Drosophila melanogaster; settings: bleomycin-treated S2 cells as compared to untreated cells
Experimental: Genomic DNA from cultured mouse (embryonic fibroblasts; MEFs) and fly (Drosophila melanogaster embryo cell line; S2) cells was analyzed by paired-end (“PE”) sequencing after a restriction enzyme digestion (HindIII for mouse and PstI for fly) and size selection. The fly and mouse genomes are structured very differently, with the mouse genome consisting of close to 50% repetitive DNA and the fly genome only 3%. The libraries were sequenced using a paired-end kit on the Illumina® Genome Analyzer fix with a read length of 85 bp. […] Alterations in the distance between two PE reads relative to the distance predicted by the RefSeq indicate putative genome rearrangements. […] First, any read pairs that had mapping quality scores lower than 30 (e.g. see Li H, Ruan J, Durbin R. (2008) Mapping short DNA sequencing reads and calling variants using mapping quality scores. Genome Research 18:1851-1858, hereby incorporated by reference in its entirety, for mapping scores) were filtered out. This removed repeat-spanning reads with ambiguous placement on the reference genome. […]
It was reasoned that treatment of S2 cells with a clastogen should give rise to elevated frequencies of genome rearrangements. […] The frequencies of genome rearrangements were expressed per read pair. […]

[5] = single S2 cell, 72-h after treatment with 4.2 mM ENU
[6] = single MEF, treated with 4.2 mM ENU

| Molecule | majority of the ENU-induced mutations (mutation spectrum) (S2 cells [1]; S2 cells) | induction of point mutations (S2 cells [1]; on average in the exposed S2 cells vs control cells) | Mutations per Mb (S2 cells [1]; [5]) | Point mutations (S2 cells [1]; [5]) | induction of point mutations ([2]; ENU-treated MEF cells vs control MEFs) | majority of the ENU-induced mutations (mutation spectrum) ([2]; MEF cells) | ENU-induced mutation frequency in MEF cells, higher than that found in the S2 cells ([2]; mutations per MB, MEF vs S2) | Mutations per Mb [2, 6] | Point mutations [2, 6] | cell survival (S2 cells [3]) | increase in genomic mutation frequency (genome rearrangements per read pair) (S2 cells [4]) |
| --- | --- | --- | --- | --- | --- | --- | --- | --- | --- | --- | --- |
| CCN(N=O)C(N)=O [ENU, N-ethyl-N-nitrosourea] | T->A, T->C and G->A mutations | 7.5 fold | 3.27 and 2.54 and 3.18 | 938 and 482 and 690 | 35 fold | T->A, T->C and G->A mutations | 30% | 3.97 and 3.91 | 426 and 446 | greater than 90% | – |
| bleomycin | – | – | – | – | – | – | – | – | – | – | approximately 3 fold |
